Source: PMC5652037 (EBioMedicine, 2017)

Molecular target: γ-secretase (catalytic subunit presenilin 1, PS1) (Cricetulus griseus, UniProt G3HNF2)
Assay: Aβ[…] secretion
Format: cell-based

`CC(C)[C@H](O)C(=O)N[C@@H](C)C(=O)N[C@@H]1C(=O)N(C)CCc2ccccc21` [semagacestat] was tested, and the IC50 was 46.7 nM.
